Laboratory results published in ChEMBL document CHEMBL1129144, “Stereoselective synthesis and biological activity of cis azetidinones as cholesterol absorption inhibitors” (1996).

Tests used:
Assay type in all cases: functional
Cricetinae gen. sp. [1] = experiment: Compound was tested for cholesterol reduction in liver in the cholesterol-fed hamster model after oral administration.
Cricetinae gen. sp. [2] = experiment: Compound was tested for % inhibition of cholesterol in the cholesterol-fed hamster model after oral administration at a dose of 10 mg/kg/day.
Cricetinae gen. sp. [3] = experiment: Compound was tested for cholesterol inhibition in the cholesterol-fed hamster model after oral administration.
Cricetinae gen. sp. [4] = experiment: Compound was tested for % inhibition of cholesterol in the cholesterol-fed hamster model after oral administration at a dose of 25 mg/kg/day.
Cricetinae gen. sp. [5] = experiment: Compound was tested for % inhibition of cholesterol in the cholesterol-fed hamster model after oral administration at a dose of 3 mg/kg/day.
Cricetinae gen. sp. [6] = experiment: Compound was tested for % inhibition of cholesterol in the cholesterol-fed hamster model after oral administration at a dose of 100 mg/kg/day.

| Compound | ED50 (Cricetinae gen. sp. [1]) | Reduction (Cricetinae gen. sp. [2]) | other results |
| --- | --- | --- | --- |
| COc1ccc([C@@H]2[C@H]([C@H](O)CCc3ccccc3)C(=O)N2c2ccccc2)cc1 | 0.4 mg/kg/day |  |  |
| COc1ccc([C@H]2[C@H]([C@@H](O)CCc3ccccc3)C(=O)N2c2ccccc2)cc1 |  | 0% |  |
| COc1ccc([C@@H]2[C@@H]([C@@H](O)CCc3ccccc3)C(=O)N2c2ccccc2)cc1 | 8.6 mg/kg/day |  |  |
| COc1ccc([C@H]2[C@@H]([C@H](O)CCc3ccccc3)C(=O)N2c2ccccc2)cc1 |  | 0% |  |
| COc1ccc([C@H]2[C@@H]([C@@H](O)CCc3ccccc3)C(=O)N2c2ccccc2)cc1 |  | 22% |  |
| COc1ccc(C2N(c3ccc(OC)cc3)C(=O)[C@]23CC[C@H](c2ccccc2)CC3)cc1 (stereo partly drawn) |  |  | ED50 (Cricetinae gen. sp. [3]): 3 mg/kg |
| COc1ccc([C@H]2[C@H]([C@H](O)CCc3ccccc3)C(=O)N2c2ccccc2)cc1 |  | 38% |  |
| COc1ccc([C@H]2[C@H](CCCc3ccccc3)C(=O)N2c2ccccc2)cc1 |  |  | Reduction (Cricetinae gen. sp. [4]): 0% |
| COc1ccc([C@@H]2[C@H]([C@@H](O)CCc3ccccc3)C(=O)N2c2ccccc2)cc1 |  |  | Reduction (Cricetinae gen. sp. [5]): 0% |
| COc1ccc([C@@H]2[C@@H](CCCc3ccccc3)C(=O)N2c2ccccc2)cc1 | 0.54 mg/kg/day |  |  |
| COc1ccc([C@@H]2[C@H](CCCc3ccccc3)C(=O)N2c2ccccc2)cc1 | 4 mg/kg/day |  |  |
| COc1ccc([C@@H]2[C@@H]([C@H](O)CCc3ccccc3)C(=O)N2c2ccccc2)cc1 | 1.2 mg/kg/day |  |  |
| COc1ccc([C@H]2[C@@H](CCCc3ccccc3)C(=O)N2c2ccccc2)cc1 |  |  | Reduction (Cricetinae gen. sp. [6]): 0% |
